System: lac repressor/operator system controlling plastome-encoded smGFP
Assay: Chemical induction of plastid GFP transgene expression by spraying a transplastomic tobacco plant with IPTG (Western blot)
Assay type: in vivo, Nicotiana tabacum
Experimental: FIG. 2: Immunological detection of GFP expression after induction with IPTG. • A) Plastid transformant 557-1 containing the smGFP gene under the control of the 16S-lac3 promoter and the lacl gene (transformation vector plCF1050-1), was analyzed for its GFP content by Western blotting. For the uninduced sample (−), a young leaf of a ca. 7 cm high plant was removed before spraying the plant with a 1 mM IPTG solution. For the induced sample (+), the next youngest leaf was cut four days after spraying. The amount of total soluble protein loaded on the gel is given on the top of the lanes. • B) Lower amounts of protein of the induced sample shown in A were loaded on the gel in order to allow quantification in comparison with the uninduced sample. In addition, protein from further leaves that were cut seven days after spraying was loaded. Leaf a was the next youngest leaf, leaf b an older leaf. Compared with a GFP standard, the amount of GFP in the first lane is in the range of 15 to 20 ng.
Tobacco seeds (Nicotiana tabacum cv. petite havana) were surface sterilized (1 min in 70% ethanol, 10 min in 5% Dimanin C, Bayer, Leverkusenr, Germany), washed 3 times for 10 min in sterile H2O and put on SCN-medium (Dovzhenko et al., 1998). Plants were grown at 25° C. in a 16 h light/8 h dark cycle (0.5-1 W/m^2 Osram L85W/25 Universal-White fluorescent lamps). Protoplast isolation was made according to Dovzhenko et al. (1998). Transformation using polyethyleneglycol (PEG) was performed as described in Koop et al. (1996), and alginate embedding according to Dovzhenko et al. (1998). After one week of culture in liquid medium, cells were transferred to agar-solidified RMOP-medium (Svab et al., 1990) containing 25 μg/ml kanamycin to select for transformants. Green regenerates were retrieved after […] and transferred to individual plates. In order to achieve homoplastomy, the individual lines were subjected to repeated cycles of shoot generation by cutting small leaf pieces which form new regenerates on RMOP-medium with 15 μg/ml kanamycin. Rooting of selected regenerates was done on SCN-medium containing 15 μg/ml spectinomycin. […]
A transplastomic plant generated with plCF10501 was grown on SCN-medium to a height of ca. 7 cm. […] After four and seven days, respectively, the next youngest leaf was cut off and also analyzed. […] Protein quantification was made according to the Bradford method with RotiQuant solution. Proteins were separated on a 15% polyacrylamide gel and transferred to nitrocellulose membrane, and GFP was detected immunologically using the ECL method (primary antibody directed against a recombinant protein corresponding to GFP from A. victoria; Santa Cruz Biotechnology).

## CC(C)S[C@@H]1O[C@H](CO)[C@H](O)[C@H](O)[C@H]1O [IPTG, isopropyl-D-thiogalactopyranoside]
FIG. 2B, first lane, Western blot of plastid transformant 557-1 sprayed with 1 mM IPTG
  amount of GFP in the first lane compared with a GFP standard: 15 to 20 ng
After spraying with 1 mM IPTG, leaves irradiated with ultraviolet/blue light
  green fluorescence of leaves: increase in green fluorescence
Plant sprayed with ca. 1 ml of 1 mM IPTG, leaf cut seven days after spraying, Western blot, FIG. 2
  amount of GFP in the leaves: a further increase could be observed
Plant sprayed with ca. 1 ml of 1 mM IPTG, next youngest leaf cut four days after spraying vs leaf cut before spraying, Western blot, FIG. 2
  increase of the amount of GFP in the leaves: about 10 fold
